Data: PubChem BioAssay AID2838 (The Scripps Research Institute Molecular Screening Center, 2010)
The source made the active and inactive calls.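 Rule for the calls: active = IC50 at or below 10 µM; inactive = IC50 above 10 µM.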

Target: tRNA 2'-phosphotransferase Tpt1 (Candida albicans SC5314)
Assay: Candida albicans TPT1 inhibitors, late-stage follow-up, biochemical, fluorescence polarization, dose response (AID 2838)
Conditions: recombinant caTpt1, RNase T1-coupled fluorescence polarization

IC50 | Compound
inactive | NC(=O)c1cc[n+](CC2=C(C(=O)O)N3C(=O)[C@@H](NC(=O)C(c4ccccc4)S(=O)(=O)O)[C@H]3SC2)cc1 (some centres undefined)
> 49.8 µM (inactive) | NS(=O)(=O)c1cc(C(=O)NC2CCSc3ccccc32)ccc1Cl (centres undefined)
> 49.8 µM (inactive) | OC(Cn1cncn1)(Cn1cncn1)c1ccc(F)cc1F
> 49.8 µM (inactive) | CC1=C(C#N)C(=O)N(C2CCS(=O)(=O)C2)C(=O)/C1=C\c1ccco1 (centres undefined)
